# Test results as given in patent US9211261B2, “Immediate release dosage forms containing solid drug dispersions” (Bend Research, Inc., priority 2002, dated 2015).
# Assay: In vitro dissolution test of Drug 1 from tablets (simulated intestinal buffer pH 6.8 with 0.5 wt % sodium lauryl sulfate)
# Assay type: physicochemical
# Conditions: 120 mgA tablet of Example 2, 900 mL pH 6.8 buffer + 0.5 wt % SLS, 37° C., 100 rpm, average of two tests
# Procedure: An in vitro test may be used to determine whether a dosage form provides a release profile within the scope of the present invention. In vitro tests are well known in the art. One example is a so-called “direct” test, where the dosage form is placed into a stirred USP type 2 dissoette flask containing 900 mL of a dissolution medium maintained at 37° C., such as a buffer solution simulating a gastric environment (10 mM HCl, 100 mM NaCl, pH 2.0, 261 mOsm/kg) or the PBS or MFD solutions previously described. One skilled in the art will understand that in such tests the dissolution medium should act as a sink for the drug in the dosage form. By “sink” is meant that the composition and volume of the dissolution medium is sufficient such that substantially all of the drug in the dosage form will dissolve into the dissolution medium within about 4 hours or less. In some cases a surfactant, such as sodium lauryl sulfate or other excipients may be added to the dissolution medium to ensure the dissolution medium acts as a sink for the drug. The dosage form is placed in a wire support to keep the dosage form off of the bottom of the flask, so that all of its surfaces are exposed to the dissolution medium, and the medium is stirred using paddles that rotate at a rate of 50 rpm. Samples of the dissolution medium are taken at periodic intervals using a VanKel VK8000 autosampling dissoette with automatic receptor solution replacement. The concentration of dissolved drug in the dissolution medium is then determined by High Performance Liquid Chromatography (HPLC), by comparing UV absorbance of samples to the absorbance of drug standards. The mass of dissolved drug in the dissolution medium is then calculated from the concentration of drug in the medium and the volume of the medium, which value is used to calculate the actual amount of drug released from the dosage form, taking into consideration the mass of drug originally present in the dosage form.
# Drug 1 dissolution from the tablets of Example 2 was measured using an in vitro test. First, a dissolution medium consisting of a simulated intestinal buffer solution was made by dissolving 6.8 g of KH2PO4 in 750 mL of deionized water with 85 mL 0.2M NaOH. Water was added for a final volume of 1 L. The pH was adjusted to 6.8±0.1 using 0.2M NaOH. Next, 0.5 wt % sodium lauryl sulfate was added to the buffer. A 900 mL sample of this solution was added to each of two vessels in a VanKel dissolution testing apparatus with automatic sampling. The solution temperature was maintained at 37° C., and stirred with a paddle speed of 100 rpm. This dissolution medium acted as a sink for the 120 mgA tablets. After equilibration to 37° C., a tablet of Example 2 was added to each vessel containing the buffer solution, resulting in a Drug 1 concentration of 130 μgA/mL, assuming all of the drug had dissolved. Samples were collected at 5, 15, 20, 35, 45, 60, 75, 90, 120 and 180 minutes, and then analyzed by HPLC using a Waters Symmetry C8 column. The mobile phase consisted of 0.2 vol % H3PO4 (in water)/methanol in the ratio of 15/85 (vol/vol). Drug 1 concentration was calculated by comparing UV absorbance at 256 nm to the absorbance of Drug 1 standards.
smiles,measurement,setting,value
"CCOC(=O)N1c2ccc(C(F)(F)F)cc2C(N(Cc2cc(C(F)(F)F)cc(C(F)(F)F)c2)C(=O)OC)CC1CC (stereo not shown) [Drug 1, 4-[(3,5-bis-trifluoromethyl-benzyl)-methoxycarbonyl-amino]-2-ethyl-6-trifluoromethyl-3,4-dihydro-2H-quinoline-1-carboxylic acid ethyl ester]",Drug 1 Concentration,time 0 min,0 μgA/mL
same,Drug 1 Released,time 0 min,0 wt %
same,Drug 1 Concentration,time 5 min,49 μgA/mL
same,Drug 1 Released,time 5 min,37 wt %
same,Drug 1 Concentration,time 15 min,114 μgA/mL
same,Drug 1 Released,time 15 min,87 wt %
same,Drug 1 Concentration,time 20 min,123 μgA/mL
same,Drug 1 Released,time 20 min,94 wt %
same,Drug 1 Concentration,time 35 min,126 μgA/mL
same,Drug 1 Released,time 35 min,96 wt %
same,Drug 1 Concentration,time 45 min,126 μgA/mL
same,Drug 1 Released,time 45 min,96 wt %
same,Drug 1 Concentration,time 60 min,125 μgA/mL
same,Drug 1 Released,time 60 min,95 wt %
same,Drug 1 Concentration,time 75 min,128 μgA/mL
same,Drug 1 Released,time 75 min,98 wt %
same,Drug 1 Concentration,time 90 min,127 μgA/mL
same,Drug 1 Released,time 90 min,97 wt %
same,Drug 1 Concentration,time 120 min,127 μgA/mL
same,Drug 1 Released,time 120 min,97 wt %
same,Drug 1 Concentration,time 180 min,131 μgA/mL
same,Drug 1 Released,time 180 min,100 wt %
